Three compounds from patent publication US10639303B2, “Alkaloids and their preparation and application as anti-HSV-1 agents” (OCEAN UNIVERSITY OF CHINA, priority 2015, dated 2020) can be followed below.

Where two headings read alike, the source gives them in different places.

Data set [1] in a line: cytotoxicity (TC50) accompanying the CPE assay. In kind it is cell-based. The following applies: human.
For another data set, the system named is HSV-1. The data set can be described thus: cytopathic effects (CPE) assay, antiviral activity against HSV-1 in Hep-2 cells. The following applies: Human alphaherpesvirus 1; HSV-1-infected Hep-2 cells, neutral red OD 540 nm, Reed-Muench; read-out: IC50 (anti-HSV-1 activity). In kind it is cell-based, Herpes Simplex Virus 1. On the procedure:
The antiviral activities against HSV-1 were evaluated by a cytopathic effects (CPE) assay. Hep-2 monolayer cells were cultured with trypsin enzyme-digesting technique and transferred to 96-well plates. The HSV-1 virus was seeded in Hep-2 cells in 96-well plates, with 2% RPMI-1640 medium, and incubated at 37° C., 5% CO2. After more than 90% lesions, the virus-infected cells were repeatedly frozen and thawed 3 times, centrifuged, quantitative packed and stored at −80° C. Each tested compound was dissolved in 10 μl DMSO to make a homogeneous solution and the solution was diluted 10 times by half-and-half dilution with 2% RPMI-1640 medium. The gradient solution was added to the infected cells incubated in 96-well plates, Ribavirin was used as positive control. Normal cells were used as blank control. Infected cells were used as negative control. All samples were incubated at 37° C., 5% CO2. Pathological changes were observed once every hour, for 24 h. After 90% lesions in negative control, 1% neutral red was added after removal of liquid in 96-well plates. The OD value was determined at 540 nm. IC50 values of tested compounds were calculated by Reed-Muench methods.

Usually IC50 stands for the midpoint of a concentration-inhibition curve. In the case of `C=C(C)[C@@H]1CC[C@](C)(/C=C/c2ccc3c(c2O)[C@@](O)(c2ccccc2)[C@H](OC)C(=O)N3)O1`, the CC50 at 24 h in data set [1] was determined as 64.9 µM. Moreover, the IC50 in the data set with HSV-1 was 0.07 µM.
For `CO[C@@H]1C(=O)Nc2ccc(/C=C/[C@]3(C)CC[C@H](O)[C@@H](C)C3)c(O)c2[C@@]1(O)c1ccccc1`, the CC50 at 24 h in data set [1] amounted to 36.9 µM. The IC50 in the data set on HSV-1 amounted to 0.21 µM.
With `NC(=O)c1ncn([C@@H]2O[C@H](CO)[C@@H](O)[C@H]2O)n1` [Ribavirin, reference compound], the CC50 at 24 h in data set [1] (Hep-2 cells, read-out: TC50) was over 10000 µM. In the data set with HSV-1, the IC50 was found to be 78 µM.
